According to ChEMBL document CHEMBL1201862, “PubChem BioAssay data set” (2004):
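Grown in 96-well plates, cells were treated for 48 hours with each compound at five concentrations. Insufficient inhibition: endpoint recorded as highest concentration tested. At the GI50, growth is halved.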 Activity calls are given as the source filed them. No stated cut-off is given here; in the data, active = GI50 up to about 1.1 µM and inactive = higher.

Experiments:
Assay in all cases: DTP human tumour cell line panel, 48 h
NCI/ADR-RES = tested on: NCI/ADR-RES
A498 = tested on: A498
NCI-H522 = tested on: NCI-H522
TK-10 = tested on: TK-10
MDA-N = tested on: MDA-N
DU-145 = tested on: DU-145
ACHN = tested on: ACHN
BT-549 = tested on: BT-549
Malme-3M = tested on: Malme-3M
786-0 = tested on: 786-0
RPMI-8226 = tested on: RPMI-8226
CAKI-1 = tested on: CAKI-1
EKVX = tested on: EKVX
MDA-MB-231 = tested on: MDA-MB-231
SR = tested on: SR
PC-3 = tested on: PC-3
T47D = tested on: T47D
LOX IMVI = tested on: LOX IMVI
Hs-578T = tested on: Hs-578T

Compound: Cn1c2ncccc2n2c(=O)cc(O)cc12
- GI50 (NCI/ADR-RES): 81.5 µM (inactive)
- GI50 (A498): 64.7 µM (inactive)
- GI50 (NCI-H522): 44 µM (inactive)
- GI50 (TK-10): 45 µM (inactive)
- GI50 (MDA-N): 81.1 µM (inactive)
- GI50 (DU-145): > 100 µM (inactive)
- GI50 (ACHN): > 100 µM (inactive)
- GI50 (BT-549): 94.4 µM (inactive)
- GI50 (Malme-3M): 33.6 µM (inactive)
- GI50 (786-0): > 100 µM (inactive)
- GI50 (RPMI-8226): > 100 µM (inactive)
- GI50 (CAKI-1): 32.4 µM (inactive)
- GI50 (EKVX): 86.1 µM (inactive)
- GI50 (MDA-MB-231): 32.4 µM (inactive)
- GI50 (SR): > 100 µM (inactive)
- GI50 (PC-3): 56.4 µM (inactive)
- GI50 (T47D): 24.1 µM (inactive)
- GI50 (LOX IMVI): 53.6 µM (inactive)

Compound: COc1ccc(-c2c(-c3ccccc3)c(C)nc3nc(SC)nc(SC)c23)cc1OC
- GI50 (A498): 15.7 µM (inactive)
- GI50 (NCI-H522): 4.61 µM (inactive)
- GI50 (Hs-578T): 5.05 µM (inactive)
- GI50 (TK-10): 23.6 µM (inactive)
- GI50 (MDA-N): 8.99 µM (inactive)
- GI50 (DU-145): 15.5 µM (inactive)
- GI50 (ACHN): 19.9 µM (inactive)
- GI50 (BT-549): 24.8 µM (inactive)
- GI50 (Malme-3M): 10.1 µM (inactive)
- GI50 (RPMI-8226): 2.82 µM (inactive)
- GI50 (CAKI-1): 0.764 µM (active)
- GI50 (EKVX): 15.6 µM (inactive)
- GI50 (MDA-MB-231): 20.9 µM (inactive)
- GI50 (SR): 0.565 µM (active)
- GI50 (PC-3): 4.29 µM (inactive)
- GI50 (T47D): 13 µM (inactive)
- GI50 (LOX IMVI): 11.4 µM (inactive)

Compound: C=C(Nc1ccc([N+](=O)[O-])cc1[N+](=O)[O-])c1c/c(=N\NC(N)=S)c2ccccc2o1
- GI50 (NCI/ADR-RES): 40.9 µM (inactive)
- GI50 (NCI-H522): > 100 µM (inactive)
- GI50 (Hs-578T): > 100 µM (inactive)
- GI50 (TK-10): > 100 µM (inactive)
- GI50 (MDA-N): > 100 µM (inactive)
- GI50 (DU-145): > 100 µM (inactive)
- GI50 (ACHN): 89.5 µM (inactive)
- GI50 (BT-549): > 100 µM (inactive)
- GI50 (786-0): 66.8 µM (inactive)
- GI50 (CAKI-1): > 100 µM (inactive)
- GI50 (EKVX): 68.7 µM (inactive)
- GI50 (MDA-MB-231): 26.8 µM (inactive)
- GI50 (SR): 16.9 µM (inactive)
- GI50 (PC-3): 26.1 µM (inactive)
- GI50 (LOX IMVI): > 100 µM (inactive)

Compound: CCOC(=O)CCC(NC(=O)c1ccc(Nc2nc3cc(C(F)(F)F)ccc3nc2C(=O)OCC)cc1)C(=O)OCC (stereo unspecified)
- GI50 (NCI/ADR-RES): 12.2 µM (inactive)
- GI50 (NCI-H522): 11.2 µM (inactive)
- GI50 (MDA-N): 6.9 µM (inactive)
- GI50 (DU-145): 78.9 µM (inactive)
- GI50 (ACHN): 13.8 µM (inactive)
- GI50 (BT-549): 16.3 µM (inactive)
- GI50 (786-0): 2.44 µM (inactive)
- GI50 (RPMI-8226): 24.9 µM (inactive)
- GI50 (EKVX): 15.9 µM (inactive)
- GI50 (MDA-MB-231): 12.5 µM (inactive)
- GI50 (SR): > 100 µM (inactive)
- GI50 (PC-3): 9.55 µM (inactive)
- GI50 (T47D): 6.25 µM (inactive)
- GI50 (LOX IMVI): 16.8 µM (inactive)

Compound: CN1CC(c2ccccc2)N(CCCCN2CC(c3ccccc3)N(C)CC2c2ccccc2)CC1c1ccccc1 (stereo unspecified)
- GI50 (NCI/ADR-RES): 53.8 µM (inactive)
- GI50 (A498): 36 µM (inactive)
- GI50 (Hs-578T): 73.1 µM (inactive)
- GI50 (TK-10): 54.1 µM (inactive)
- GI50 (MDA-N): 32.1 µM (inactive)
- GI50 (DU-145): 36.2 µM (inactive)
- GI50 (ACHN): > 100 µM (inactive)
- GI50 (BT-549): 37 µM (inactive)
- GI50 (Malme-3M): 31.7 µM (inactive)
- GI50 (786-0): 73.5 µM (inactive)
- GI50 (CAKI-1): > 100 µM (inactive)
- GI50 (EKVX): 59 µM (inactive)
- GI50 (MDA-MB-231): 58.7 µM (inactive)
- GI50 (SR): 68.5 µM (inactive)
- GI50 (PC-3): 18.2 µM (inactive)
- GI50 (LOX IMVI): 14.8 µM (inactive)

Compound: Nc1nccc2c1ncn2[C@H]1C[C@H](O)[C@@H](CO)O1
- GI50 (NCI/ADR-RES): > 100 µM (inactive)
- GI50 (A498): > 100 µM (inactive)
- GI50 (Hs-578T): > 100 µM (inactive)
- GI50 (TK-10): > 100 µM (inactive)
- GI50 (MDA-N): > 100 µM (inactive)
- GI50 (DU-145): > 100 µM (inactive)
- GI50 (BT-549): > 100 µM (inactive)
- GI50 (Malme-3M): > 100 µM (inactive)
- GI50 (RPMI-8226): > 100 µM (inactive)
- GI50 (CAKI-1): > 100 µM (inactive)
- GI50 (MDA-MB-231): > 100 µM (inactive)
- GI50 (SR): > 100 µM (inactive)
- GI50 (PC-3): > 100 µM (inactive)
- GI50 (T47D): > 100 µM (inactive)
- GI50 (LOX IMVI): > 100 µM (inactive)

Compound: O=S(=O)(N/C(=N\O)Nc1ccc(Cl)cc1)c1ccccc1
- GI50 (NCI/ADR-RES): 12 µM (inactive)
- GI50 (A498): 6.67 µM (inactive)
- GI50 (NCI-H522): 1.03 µM (active)
- GI50 (Hs-578T): 6.46 µM (inactive)
- GI50 (TK-10): 14 µM (inactive)
- GI50 (MDA-N): 3.9 µM (inactive)
- GI50 (DU-145): 18.5 µM (inactive)
- GI50 (ACHN): 12.2 µM (inactive)
- GI50 (BT-549): 12.6 µM (inactive)
- GI50 (Malme-3M): 4.34 µM (inactive)
- GI50 (786-0): 1.87 µM (inactive)
- GI50 (RPMI-8226): 4.13 µM (inactive)
- GI50 (CAKI-1): 2.07 µM (inactive)
- GI50 (EKVX): 10.3 µM (inactive)
- GI50 (MDA-MB-231): 29.5 µM (inactive)
- GI50 (SR): 1.15 µM (inactive)
- GI50 (PC-3): 13.3 µM (inactive)
- GI50 (T47D): 2.74 µM (inactive)
- GI50 (LOX IMVI): 13.4 µM (inactive)

Compound: O=c1[nH]c2ccccc2n1CCCN1CCC(n2c(=O)[nH]c3cc(Cl)ccc32)CC1 [DOMPERIDONE]
- GI50 (NCI/ADR-RES): 23.3 µM (inactive)
- GI50 (A498): 23 µM (inactive)
- GI50 (NCI-H522): 15.4 µM (inactive)
- GI50 (Hs-578T): 19.6 µM (inactive)
- GI50 (TK-10): 20.2 µM (inactive)
- GI50 (MDA-N): 15.8 µM (inactive)
- GI50 (DU-145): 19 µM (inactive)
- GI50 (ACHN): 18.8 µM (inactive)
- GI50 (BT-549): 18 µM (inactive)
- GI50 (Malme-3M): 17.5 µM (inactive)
- GI50 (786-0): 14.4 µM (inactive)
- GI50 (RPMI-8226): 20.1 µM (inactive)
- GI50 (CAKI-1): 15.7 µM (inactive)
- GI50 (EKVX): 22.8 µM (inactive)
- GI50 (MDA-MB-231): 17.6 µM (inactive)
- GI50 (PC-3): 19.4 µM (inactive)
- GI50 (T47D): 16.3 µM (inactive)
